Where two headings read alike, the source gives them in different places. Where a SMILES comes first, the peptide text is derived from it. Bridges are numbered along the chain shown (N, C = ends). [ ]: non-standard residue; d: D form. Phe(3,4,5-F3) = N[C@@H](Cc1cc(F)c(F)c(F)c1)C(=O)O; NMeF = CN[C@@H](Cc1ccccc1)C(=O)O; dHyp = O=C(O)[C@H]1C[C@H](O)CN1; NMeNle = CCCC[C@H](NC)C(=O)O; dPip = O=C(O)[C@H]1CCCCN1; dThz = O=C(O)[C@H]1CSCN1; Sar = CNCC(=O)O
Target: T1, Human PD-L1/PD-1 (Homo sapiens, UniProt Q9NZQ7)
T1 construct: TVMV protease cleavage site (C); made in house; host or cells: HEK293T cells
T1 sequence (Q9NZQ7 with tags, fused parts or gaps): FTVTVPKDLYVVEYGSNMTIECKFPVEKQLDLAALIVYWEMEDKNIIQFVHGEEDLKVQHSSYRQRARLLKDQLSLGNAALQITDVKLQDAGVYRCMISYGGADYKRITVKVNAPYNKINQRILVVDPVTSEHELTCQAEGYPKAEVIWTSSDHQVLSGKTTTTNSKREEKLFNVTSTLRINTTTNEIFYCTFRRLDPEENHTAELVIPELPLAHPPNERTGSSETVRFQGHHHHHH
Assay: HTRF Human PD-L1/PD-1 binding assay (PD-1-Ig/PD-L1-His)
Details: PD-L1-His 10 nM, PD-1-Ig 20 nM
How it was run: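 Compound preincubated 15 min with PD-L1-His (10 nM final), then PD-1-Ig (20 nM final) added for 15 min in dPBS with 0.1% BSA and 0.05% Tween-20. Detection by Eu-cryptate anti-Ig (1 nM) and APC anti-His (20 nM) after 30 min; 665/620 nm HTRF ratio. Proteins expressed in HEK293T.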

[1] = class symbol, read-out: HTRF Human PD-L1/PD-1 Binding Assay IC50 Range
[2] = read-out: HTRF Human PD-L1/PD-1 Binding Assay IC50

| Structure (SMILES) | IC50 [1] | IC50 [2] |
| --- | --- | --- |
| CCCC[C@H]1C(=O)N2C[C@@H](O)C[C@@H]2C(=O)N[C@@H](CC(=O)O)C(=O)N[C@@H](C)C(=O)N(C)[C@@H](Cc2ccccc2)C(=O)N[C@@H](Cc2ccc(O)cc2)C(=O)N2C[C@@H](O)C[C@@H]2C(=O)N[C@@H](Cc2c[nH]c3ccccc23)C(=O)N[C@@H](Cc2ccc(O)cc2)C(=O)N[C@@H](CC(C)C)C(=O)N[C@H](C(=O)NCC(N)=O)CSCC(=O)N[C@@H](Cc2ccccc2)C(=O)N(C)[C@@H](Cc2ccccc2)C(=O)N1C [Example 10079] ({CH2CO}-F[NMeF][NMeNle][dHyp]DA[NMeF]Y[dHyp]WYLCG-NH2; thioether N-13) | 0.01 to 0.0999 µM |  |
| CCCC[C@H]1C(=O)N(C)CC(=O)N[C@@H](CC(=O)O)C(=O)N[C@@H](C)C(=O)N(C)[C@@H](Cc2ccccc2)C(=O)N[C@@H](Cc2ccc(O)cc2)C(=O)N2CCC[C@@H]2C(=O)N[C@@H](Cc2c[nH]c3ccccc23)C(=O)N[C@@H](Cc2ccc(O)cc2)C(=O)N[C@@H](CC(C)C)C(=O)N[C@H](C(=O)NCC(N)=O)CSCC(=O)N[C@@H](Cc2ccccc2)C(=O)N(C)[C@@H](Cc2ccccc2)C(=O)N1C [Example 10080] ({CH2CO}-F[NMeF][NMeNle][Sar]DA[NMeF]Y[dP]WYLCG-NH2; thioether N-13) | 0.01 to 0.0999 µM |  |
| CCCC[C@H]1C(=O)N(C)CC(=O)N[C@@H](CC(=O)O)C(=O)N[C@@H](C)C(=O)N(C)[C@@H](Cc2ccccc2)C(=O)N[C@@H](Cc2ccc(O)cc2)C(=O)N2CCCC[C@@H]2C(=O)N[C@@H](Cc2c[nH]c3ccccc23)C(=O)N[C@@H](Cc2ccc(O)cc2)C(=O)N[C@@H](CC(C)C)C(=O)N[C@H](C(=O)NCC(N)=O)CSCC(=O)N[C@@H](Cc2ccccc2)C(=O)N(C)[C@@H](Cc2ccccc2)C(=O)N1C [Example 10081] ({CH2CO}-F[NMeF][NMeNle][Sar]DA[NMeF]Y[dPip]WYLCG-NH2; thioether N-13) | 0.01 to 0.0999 µM |  |
| CCCC[C@H]1C(=O)N(C)CC(=O)N[C@@H](CC(=O)O)C(=O)N[C@@H](C)C(=O)N(C)[C@@H](Cc2ccccc2)C(=O)N[C@@H](Cc2ccc(O)cc2)C(=O)N2CSC[C@@H]2C(=O)N[C@@H](Cc2c[nH]c3ccccc23)C(=O)N[C@@H](Cc2ccc(O)cc2)C(=O)N[C@@H](CC(C)C)C(=O)N[C@H](C(=O)NCC(N)=O)CSCC(=O)N[C@@H](Cc2ccccc2)C(=O)N(C)[C@@H](Cc2ccccc2)C(=O)N1C [Example 10082] ({CH2CO}-F[NMeF][NMeNle][Sar]DA[NMeF]Y[dThz]WYLCG-NH2; thioether N-13) | 0.1 to 0.99 µM |  |
| CCCC[C@H]1C(=O)N(C)CC(=O)N[C@@H](CC(=O)O)C(=O)N[C@@H](C)C(=O)N(C)[C@@H](Cc2ccccc2)C(=O)N[C@@H](Cc2ccc(O)cc2)C(=O)N2C[C@@H](O)C[C@@H]2C(=O)N[C@@H](Cc2c[nH]c3ccccc23)C(=O)N[C@@H](Cc2ccc(O)cc2)C(=O)N[C@@H](CC(C)C)C(=O)N[C@H](C(=O)NCC(N)=O)CSCC(=O)N[C@@H](Cc2ccccc2)C(=O)N(C)[C@@H](Cc2ccccc2)C(=O)N1C [Example 10083] ({CH2CO}-F[NMeF][NMeNle][Sar]DA[NMeF]Y[dHyp]WYLCG-NH2; thioether N-13) |  | 0.158 µM |
| CCCC[C@H]1C(=O)N2CCCC[C@@H]2C(=O)N[C@@H](CC(=O)O)C(=O)N[C@@H](C)C(=O)N(C)[C@@H](Cc2ccccc2)C(=O)N[C@@H](Cc2ccc(O)cc2)C(=O)N(C)CC(=O)N[C@@H](Cc2c[nH]c3ccccc23)C(=O)N[C@@H](Cc2ccc(O)cc2)C(=O)N[C@@H](CC(C)C)C(=O)N[C@H](C(=O)NCC(N)=O)CSCC(=O)N[C@@H](Cc2ccccc2)C(=O)N(C)[C@@H](Cc2ccccc2)C(=O)N1C [Example 10084] ({CH2CO}-F[NMeF][NMeNle][dPip]DA[NMeF]Y[Sar]WYLCG-NH2; thioether N-13) | 0.1 to 0.99 µM |  |
| CCCC[C@H]1C(=O)N2CSC[C@@H]2C(=O)N[C@@H](CC(=O)O)C(=O)N[C@@H](C)C(=O)N(C)[C@@H](Cc2ccccc2)C(=O)N[C@@H](Cc2ccc(O)cc2)C(=O)N(C)CC(=O)N[C@@H](Cc2c[nH]c3ccccc23)C(=O)N[C@@H](Cc2ccc(O)cc2)C(=O)N[C@@H](CC(C)C)C(=O)N[C@H](C(=O)NCC(N)=O)CSCC(=O)N[C@@H](Cc2ccccc2)C(=O)N(C)[C@@H](Cc2ccccc2)C(=O)N1C [Example 10085] ({CH2CO}-F[NMeF][NMeNle][dThz]DA[NMeF]Y[Sar]WYLCG-NH2; thioether N-13) | 0.1 to 0.99 µM |  |
| CCCC[C@H]1C(=O)N2C[C@@H](O)C[C@@H]2C(=O)N[C@@H](CC(=O)O)C(=O)N[C@@H](C)C(=O)N(C)[C@@H](Cc2ccccc2)C(=O)N[C@@H](Cc2ccc(O)cc2)C(=O)N(C)CC(=O)N[C@@H](Cc2c[nH]c3ccccc23)C(=O)N[C@@H](Cc2ccc(O)cc2)C(=O)N[C@@H](CC(C)C)C(=O)N[C@H](C(=O)NCC(N)=O)CSCC(=O)N[C@@H](Cc2ccccc2)C(=O)N(C)[C@@H](Cc2ccccc2)C(=O)N1C [Example 10086] ({CH2CO}-F[NMeF][NMeNle][dHyp]DA[NMeF]Y[Sar]WYLCG-NH2; thioether N-13) | 0.01 to 0.0999 µM |  |
| CCCC[C@H]1C(=O)N2CCC[C@@H]2C(=O)N[C@@H](CC(=O)O)C(=O)N[C@@H](C)C(=O)N(C)[C@@H](Cc2ccccc2)C(=O)N[C@@H](Cc2ccc(O)cc2)C(=O)N2CCCC[C@@H]2C(=O)N[C@@H](Cc2c[nH]c3ccccc23)C(=O)N[C@@H](Cc2ccc(O)cc2)C(=O)N[C@@H](CC(C)C)C(=O)N[C@H](C(=O)NCC(N)=O)CSCC(=O)N[C@@H](Cc2ccccc2)C(=O)N(C)[C@@H](Cc2ccccc2)C(=O)N1C [Example 10087] ({CH2CO}-F[NMeF][NMeNle][dP]DA[NMeF]Y[dPip]WYLCG-NH2; thioether N-13) | 0.01 to 0.0999 µM |  |
| CCCC[C@H]1C(=O)N2CCC[C@@H]2C(=O)N[C@@H](CC(=O)O)C(=O)N[C@@H](C)C(=O)N(C)[C@@H](Cc2ccccc2)C(=O)N[C@@H](Cc2ccc(O)cc2)C(=O)N2CSC[C@@H]2C(=O)N[C@@H](Cc2c[nH]c3ccccc23)C(=O)N[C@@H](Cc2ccc(O)cc2)C(=O)N[C@@H](CC(C)C)C(=O)N[C@H](C(=O)NCC(N)=O)CSCC(=O)N[C@@H](Cc2ccccc2)C(=O)N(C)[C@@H](Cc2ccccc2)C(=O)N1C [Example 10088] ({CH2CO}-F[NMeF][NMeNle][dP]DA[NMeF]Y[dThz]WYLCG-NH2; thioether N-13) | 0.01 to 0.0999 µM |  |
| CCCC[C@H]1C(=O)N2CCC[C@@H]2C(=O)N[C@@H](CO)C(=O)N[C@@H](C(C)C)C(=O)N(C)[C@@H](Cc2ccccc2)C(=O)N[C@@H](Cc2ccc(O)cc2)C(=O)N2CSC[C@@H]2C(=O)N[C@@H](Cc2c[nH]c3ccccc23)C(=O)N[C@@H](Cc2ccc(O)cc2)C(=O)N[C@@H](CC(C)C)C(=O)N[C@H](C(=O)NCC(N)=O)CSCC(=O)N[C@@H](Cc2cc(F)c(F)c(F)c2)C(=O)N(C)[C@@H](Cc2ccccc2)C(=O)N1C [Example 10089] ({CH2CO}-[Phe(3,4,5-F3)][NMeF][NMeNle][dP]SV[NMeF]Y[dThz]WYLCG-NH2; thioether N-13) | 0.001 to 0.0099 µM |  |
| CCCC[C@H]1C(=O)N2CCC[C@@H]2C(=O)N[C@@H](CC(=O)O)C(=O)N[C@@H](C(C)C)C(=O)N(C)[C@@H](Cc2ccccc2)C(=O)N[C@@H](CCC(=O)O)C(=O)N2CSC[C@@H]2C(=O)N[C@@H](Cc2c[nH]c3ccccc23)C(=O)N[C@@H](Cc2ccc(O)cc2)C(=O)N[C@@H](CC(C)C)C(=O)N[C@H](C(=O)NCC(N)=O)CSCC(=O)N[C@@H](Cc2cc(F)c(F)c(F)c2)C(=O)N(C)[C@@H](Cc2ccccc2)C(=O)N1C [Example 10090] ({CH2CO}-[Phe(3,4,5-F3)][NMeF][NMeNle][dP]DV[NMeF]E[dThz]WYLCG-NH2; thioether N-13) | 0.001 to 0.0099 µM |  |
| CCCC[C@H]1C(=O)N2CCC[C@@H]2C(=O)N[C@@H](CC(=O)O)C(=O)N[C@@H](C(C)C)C(=O)N(C)[C@@H](Cc2ccccc2)C(=O)N[C@@H](CC(=O)O)C(=O)N2CSC[C@@H]2C(=O)N[C@@H](Cc2c[nH]c3ccccc23)C(=O)N[C@@H](Cc2ccc(O)cc2)C(=O)N[C@@H](CC(C)C)C(=O)N[C@H](C(=O)NCC(N)=O)CSCC(=O)N[C@@H](Cc2cc(F)c(F)c(F)c2)C(=O)N(C)[C@@H](Cc2ccccc2)C(=O)N1C [Example 10091] ({CH2CO}-[Phe(3,4,5-F3)][NMeF][NMeNle][dP]DV[NMeF]D[dThz]WYLCG-NH2; thioether N-13) |  | 0.0025 µM |
| CCCC[C@H]1C(=O)N2CCC[C@@H]2C(=O)N[C@@H](CC(=O)O)C(=O)N[C@@H](C(C)C)C(=O)N(C)[C@@H](Cc2ccccc2)C(=O)N[C@@H](Cc2ccc(O)cc2)C(=O)N2CSC[C@@H]2C(=O)N[C@@H](Cc2c[nH]c3ccccc23)C(=O)N[C@@H](Cc2ccc(O)cc2)C(=O)N[C@@H](CC(C)C)C(=O)N[C@H](C(=O)NCC(N)=O)CSCC(=O)N[C@@H](Cc2cc(F)c(F)c(F)c2)C(=O)N(C)[C@@H](Cc2ccccc2)C(=O)N1C [Example 10092] ({CH2CO}-[Phe(3,4,5-F3)][NMeF][NMeNle][dP]DV[NMeF]Y[dThz]WYLCG-NH2; thioether N-13) | 0.001 to 0.0099 µM |  |
| CCCC[C@H]1C(=O)N2CSC[C@@H]2C(=O)N[C@@H](CC(=O)O)C(=O)N[C@@H](C(C)C)C(=O)N(C)[C@@H](Cc2ccccc2)C(=O)N[C@@H](Cc2ccc(O)cc2)C(=O)N2CCC[C@@H]2C(=O)N[C@@H](Cc2c[nH]c3ccccc23)C(=O)N[C@@H](Cc2ccc(O)cc2)C(=O)N[C@@H](CC(C)C)C(=O)N[C@H](C(=O)NCC(N)=O)CSCC(=O)N[C@@H](Cc2cc(F)c(F)c(F)c2)C(=O)N(C)[C@@H](Cc2ccccc2)C(=O)N1C [Example 10093] ({CH2CO}-[Phe(3,4,5-F3)][NMeF][NMeNle][dThz]DV[NMeF]Y[dP]WYLCG-NH2; thioether N-13) | 0.001 to 0.0099 µM |  |
| CCCC[C@H]1C(=O)N2CCC[C@@H]2C(=O)N[C@@H](CC(=O)O)C(=O)N[C@@H](C(C)C)C(=O)N(C)[C@@H](Cc2ccccc2)C(=O)N[C@@H](Cc2ccc(O)cc2)C(=O)N2CCC[C@@H]2C(=O)N[C@@H](Cc2c[nH]c3ccccc23)C(=O)N[C@@H](Cc2ccc(O)cc2)C(=O)N[C@@H](CO)C(=O)N[C@H](C(=O)NCC(N)=O)CSCC(=O)N[C@@H](Cc2cc(F)c(F)c(F)c2)C(=O)N(C)[C@@H](Cc2ccccc2)C(=O)N1C [Example 10094] ({CH2CO}-[Phe(3,4,5-F3)][NMeF][NMeNle][dP]DV[NMeF]Y[dP]WYSCG-NH2; thioether N-13) | 0.001 to 0.0099 µM |  |
